In paper PMC4106271 (Journal of Medicinal Chemistry, 2014):

Experiments:
α3β2γ2S GABAA receptors = biological target: T1, α3β2γ2S GABAA receptors (Homo sapiens, UniProt P34903+P47870); experiment: Two-microelectrode voltage clamp, IGABA modulation, α3β2γ2S; format: cell-based; conditions: for nH: Hill coefficient
T1 construct: expressed in transfected cells; host or cells: Xenopus laevis oocytes injected with cRNA (pCMV cDNA templates)
Protocol: (§1) Preparation of stage V–VI oocytes from X. laevis and synthesis of capped runoff poly(A) cRNA transcripts from linearized cDNA templates (pCMV vector) was performed as previously described.[49] […] Follicle membranes from isolated oocytes were enzymatically digested with 2 mg/mL collagenase (type 1A, Sigma–Aldrich, Vienna, Austria).
(§2) Selected oocytes were injected with 10–50 nL of DEPC-treated water (diethyl pyrocarbonate, Sigma, Vienna, Austria) containing the different GABAA cRNAs at a concentration of approximately 300–3000 pg·nL^–1·subunit^–1.
(§3) To ensure expression of the γ2S subunit in the case of α1/2/3/5β2/3γ2S receptors, cRNAs were mixed in a ratio of 1:1:10. […] The amount of cRNAs was determined by means of a NanoDrop ND-1000 (Kisker-Biotech, Steinfurt, Germany).
(§4) Oocytes were stored at +18 °C in modified ND96 solution (90 mM NaCl, 1 mM CaCl2, 1 mM KCl, 1 mM MgCl2·6H2O, and 5 mM HEPES [4-(2-hydroxyethyl)-1-piperazineethanesulfonic acid], pH 7.4, all from Sigma–Aldrich, Vienna, Austria).
(§5) Chloride currents through GABAA receptors (IGABA) were measured at room temperature (+21 ± 1 °C) by means of a two-microelectrode voltage clamp technique making use of a Turbo TEC-05X amplifier (npi electronic, Tamm, Germany). IGABA were elicited at a holding potential of –70 mV. Data acquisition was carried out by means of an Axon Digidata 1322A interface using pCLAMP v.10 (Molecular Devices, Sunnyvale, CA). The modified ND96 solution was used as bath solution.
(§6) GABA and the studied derivatives were applied by means of the ScreeningTool (npi electronic, Tamm, Germany) fast perfusion system as described previously.[50] To elicit IGABA, the chamber was perfused with 120 μL of GABA- or compound-containing solution at a volume rate of 300 μL/s.[34] Care was taken to account for possible slow recovery from increasing levels of desensitization in the presence of high drug concentrations. The duration of washout periods was therefore extended from 1.5 min (<10 μM compounds) to 30 min (≥10 μM compounds). Oocytes with maximal current amplitudes >3 μA were discarded to exclude voltage clamp errors.
(§7) Stimulation of chloride currents by modulators of the GABAA receptor was measured at a GABA concentration eliciting between 3% and 7% of the maximal current amplitude (EC3–7). The GABA EC3–7 was determined for each oocyte individually. Enhancement of the chloride current was defined as (IGABA+compd/IGABA) – 1, where IGABA+compd is the current response in the presence of a given compound and IGABA is the control GABA current. IGABA-max reflects the maximal IGABA enhancement. […] Statistical significance was calculated by paired Student t-test with a confidence interval of <0.05.

α5β2γ2S GABAA receptors = biological target: T2, α5β2γ2S GABAA receptors (Homo sapiens, UniProt P31644+P47870); experiment: Two-microelectrode voltage clamp, IGABA modulation, α5β2γ2S; format: cell-based; conditions: for nH: Hill coefficient
T2 construct: expressed in transfected cells; host or cells: Xenopus laevis oocytes injected with cRNA (pCMV cDNA templates)
T2 sequence (P31644 32-462): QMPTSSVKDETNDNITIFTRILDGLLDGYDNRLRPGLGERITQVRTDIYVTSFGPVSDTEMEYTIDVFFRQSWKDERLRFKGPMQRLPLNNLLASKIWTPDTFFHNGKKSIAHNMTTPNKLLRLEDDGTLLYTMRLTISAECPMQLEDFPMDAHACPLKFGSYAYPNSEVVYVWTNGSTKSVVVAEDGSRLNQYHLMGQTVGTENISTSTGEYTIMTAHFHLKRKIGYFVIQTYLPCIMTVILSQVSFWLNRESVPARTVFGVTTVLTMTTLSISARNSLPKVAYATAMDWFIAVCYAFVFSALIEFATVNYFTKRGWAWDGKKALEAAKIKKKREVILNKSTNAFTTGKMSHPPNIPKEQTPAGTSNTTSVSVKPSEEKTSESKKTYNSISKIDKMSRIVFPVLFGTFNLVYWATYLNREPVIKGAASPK
T2 sequence (P47870 26-512): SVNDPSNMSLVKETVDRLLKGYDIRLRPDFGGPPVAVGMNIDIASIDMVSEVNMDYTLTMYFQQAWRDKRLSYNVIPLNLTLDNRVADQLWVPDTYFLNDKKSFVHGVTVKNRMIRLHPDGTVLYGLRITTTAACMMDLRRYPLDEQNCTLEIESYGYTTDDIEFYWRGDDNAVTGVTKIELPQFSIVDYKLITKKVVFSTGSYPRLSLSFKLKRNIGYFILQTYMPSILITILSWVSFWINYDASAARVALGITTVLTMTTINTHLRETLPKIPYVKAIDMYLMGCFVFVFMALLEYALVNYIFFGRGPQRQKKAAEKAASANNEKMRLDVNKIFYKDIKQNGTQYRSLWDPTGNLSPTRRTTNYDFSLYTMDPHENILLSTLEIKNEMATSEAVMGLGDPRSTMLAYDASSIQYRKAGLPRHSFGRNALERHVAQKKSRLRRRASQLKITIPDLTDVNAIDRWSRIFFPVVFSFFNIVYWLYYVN
T2 sequence (P18507 40-467 isoform P18507-1 partner limits assumed): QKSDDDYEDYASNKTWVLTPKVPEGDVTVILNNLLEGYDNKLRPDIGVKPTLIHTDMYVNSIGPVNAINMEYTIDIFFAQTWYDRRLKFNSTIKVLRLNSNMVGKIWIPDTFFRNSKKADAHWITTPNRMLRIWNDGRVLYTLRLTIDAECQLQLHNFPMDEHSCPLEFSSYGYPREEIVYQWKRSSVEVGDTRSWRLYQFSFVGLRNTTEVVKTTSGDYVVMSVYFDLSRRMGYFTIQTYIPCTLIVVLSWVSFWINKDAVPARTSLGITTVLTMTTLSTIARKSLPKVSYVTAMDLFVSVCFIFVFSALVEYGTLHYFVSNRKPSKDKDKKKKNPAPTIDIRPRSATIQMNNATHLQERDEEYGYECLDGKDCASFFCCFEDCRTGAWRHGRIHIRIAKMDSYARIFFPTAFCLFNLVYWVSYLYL
Protocol: as §1, §2, §3, §4, §5, §6, §7

male C57BL/6N mice [1] = experiment: Elevated plus maze test; format: in vivo; conditions: for time spent in open arms (OA) as percentage of total time: 30 min after application, EPM; for effect in the EPM test: ip, 30 min before test
Protocol: (§8) Male mice (C57BL/6N) were obtained from Charles River Laboratories (Sulzfeld, Germany). For maintenance, mice were group-housed (maximum five mice per type IIL cage) with free access to food and water. At least 24 h before the commencement of experiments, mice were transferred to the testing facility, where they were given free access to food and water. The temperature in the maintenance and testing facilities was 23 ± 1 °C; the humidity was 40–60%; a 12 h light–dark cycle was in operation (lights on from 07:00 to 19:00). Only male mice aged 3–6 months were tested.
(§9) Compounds were applied by intraperitoneal (ip) injection 30 min before each test. Testing solutions were prepared in a solvent composed of 0.9% NaCl solution with 10% dimethyl sulfoxide (DMSO) and 3% Tween 80. […] All doses are indicated as milligrams per kilogram of body weight of the animal.
The animals’ behavior was tested over 5 min on an elevated plus maze 1 m above ground consisting of two closed and two open arms, each 50 × 5 cm in size. The test instrument was built from gray PVC; the height of closed arm walls was 20 cm. Illumination was set to 180 Lux. Animals were placed in the center, facing an open arm. Analysis of open and closed arm entries and time on open arm was automatically done with Video-Mot 2 equipment and software (TSE Systems, Bad Homburg, Germany).[34]

male C57BL/6N mice [2] = experiment: Open field test; format: in vivo; conditions: ip, total ambulation
Protocol: as §8, §9
Ambulation was tested over 10 min in a 50 × 50 cm flexfield box equipped with infrared rearing detection. Illumination was set to 150 Lux. The animals’ explorative behavior was analyzed by use of the ActiMot 2 equipment and software (TSE-systems, Bad Homburg, Germany). Arenas were subdivided into border (up to 8 cm from wall), center (20 × 20 cm, 16% of total area), and intermediate area according to the recommendations of EMPRESS (European Mouse Phenotyping Resource of Standardised Screens; http://empress.har.mrc.ac.uk).

T1 sequence (P34903 29-492): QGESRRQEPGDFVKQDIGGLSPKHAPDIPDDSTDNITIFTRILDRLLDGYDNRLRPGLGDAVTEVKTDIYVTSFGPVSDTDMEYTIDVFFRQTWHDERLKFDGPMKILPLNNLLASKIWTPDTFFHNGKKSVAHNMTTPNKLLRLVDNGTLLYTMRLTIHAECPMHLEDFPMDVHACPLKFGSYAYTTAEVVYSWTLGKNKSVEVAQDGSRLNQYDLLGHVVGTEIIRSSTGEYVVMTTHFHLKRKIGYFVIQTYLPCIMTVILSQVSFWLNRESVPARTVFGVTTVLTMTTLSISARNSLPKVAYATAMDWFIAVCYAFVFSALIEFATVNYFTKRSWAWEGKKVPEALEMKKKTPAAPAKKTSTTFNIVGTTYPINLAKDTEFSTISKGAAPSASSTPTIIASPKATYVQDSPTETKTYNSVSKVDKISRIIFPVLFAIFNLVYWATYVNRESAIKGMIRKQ
T1 sequence (P47870 26-512): as the sequence (P47870 26-512) above
T1 sequence (P18507 40-467 isoform P18507-1 partner limits assumed): as the sequence (P18507 40-467 isoform P18507-1 partner limits assumed) above

Question: Which results are given for `CCCN(CCC)C(=O)/C=C/C=C/c1ccc2c(c1)OCO2` [Compound 23, (2E,4E)-5-(1,3-benzodioxol-5-yl)-N,N-dipropyl-2,4-pentadienamide]?
Answer: EC50 (α3β2γ2S GABAA receptors): 36.6 ± 7.2 µM; nH (α3β2γ2S GABAA receptors): 1.9 ± 0.3; EC50 (α5β2γ2S GABAA receptors): 61.9 ± 10.4 µM; nH (α5β2γ2S GABAA receptors): 1.4 ± 0.1; time spent in open arms (OA) as percentage of total time (male C57BL/6N mice [1]; 0.3 mg/kg ip): 45.6% ± 3.2%; effect in the EPM test (male C57BL/6N mice [1]): anxiolytic effects; sedation in the OF test (male C57BL/6N mice [2]): little sedation

Question: What does the source list for `CCCCN(CCCC)C(=O)/C=C/C=C/c1ccc2c(c1)OCO2` [Compound 25, (2E,4E)-5-(1,3-Benzodioxol-5-yl)-N,N-dibutyl-2,4-pentadienamide]?
Answer: EC50 (α3β2γ2S GABAA receptors): 16 ± 2.7 µM; nH (α3β2γ2S GABAA receptors): 1.8 ± 0.1; EC50 (α5β2γ2S GABAA receptors): 17.2 ± 1.4 µM; nH (α5β2γ2S GABAA receptors): 1.7 ± 0.2; time spent in open arms (OA) as percentage of total time (male C57BL/6N mice [1]; 0.3 mg/kg ip): 39.8% ± 4.1%; time spent in open arms (OA) as percentage of total time (male C57BL/6N mice [1]; 3 mg/kg ip): 43.9% ± 4.3%; effect in the EPM test (male C57BL/6N mice [1]): anxiolytic effects; sedation in the OF test (male C57BL/6N mice [2]): little sedation
